Results on nine compounds are retold here after patent US10351546B2, “Pyridin-3-yl acetic acid derivatives as inhibitors of human immunodeficiency virus replication” (priority 2015, dated 2019).

pEC50: −log10 of the molar value.

The test system of the experiment is NL-RLuc virus. Description: Inhibition of HIV replication (NL-RLuc luciferase reporter virus in MT-2 cells). Type of experiment: cell-based. The note with it: Human immunodeficiency virus 1, MT2, 120 h, read-out: Activity. The method in brief:
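MT-2 cells were infected with NL4-3-derived virus carrying Renilla luciferase in place of part of nef, in RPMI/10% FBS, with serial compound dilutions. Luciferase read after 5 days of multicycle replication. EC50 from the median effect equation, at least 2 experiments.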
As to `Cc1nc(CN2CCC(F)(F)CC2)c(-c2ccc(OCCc3ccc(F)cc3)cc2)c(N2CCC(C)(C)CC2)c1[C@H](OC(C)(C)C)C(=O)O` [Example 86, (S)-2-(tert-Butoxy)-2-(6-((4,4-difluoropiperidin-1-yl)methyl)-4-(4,4-dimethylpiperidin-1-yl)-5-(4-(4-fluorophenethoxy)phenyl)-2-methylpyridin-3-yl)acetic acid], the pEC50 was more than 7.00.

As for `COCc1ncc([C@H](OC(C)(C)C)C(=O)O)c(N2CCC(C)(C)CC2)c1-c1ccc(OCCc2ccc(F)cc2)cc1` [Example 183, (S)-2-(tert-Butoxy)-2-(4-(4,4-dimethylpiperidin-1-yl)-5-(4-(4-fluorophenethoxy)phenyl)-6-(methoxymethyl)pyridin-3-yl)acetic acid], the pEC50 is more than 7.00.

With `Cc1nc(CN(C)Cc2ccccc2)c(-c2ccc(OCCc3ccc(F)cc3)cc2)c(N2CCC(C)(C)CC2)c1[C@H](OC(C)(C)C)C(=O)O` [Example 97, (S)-2-(6-((Benzyl(methyl)amino)methyl)-4-(4,4-dimethylpiperidin-1-yl)-5-(4-(4-fluorophenethoxy)phenyl)-2-methylpyridin-3-yl)-2-(tert-butoxy)acetic acid], the pEC50 was more than 7.00.

As for `Cc1nc(-c2cn(C)nn2)c(-c2ccc(OCCc3ccc(F)cc3)cc2)c(N2CCC(C)(C)CC2)c1[C@H](OC(C)(C)C)C(=O)O` [Example 169, (S)-2-(tert-butoxy)-2-(4-(4,4-dimethylpiperidin-1-yl)-5-(4-(4-fluorophenethoxy)phenyl)-2-methyl-6-(1-methyl-1H-1,2,3-triazol-4-yl)pyridin-3-yl)acetic acid], the pEC50 was more than 7.00.

For `Cc1nc(COCCCOCc2ccccc2)c([C@H](OC(C)(C)C)C(=O)O)c(N2CCC(C)(C)CC2)c1-c1ccc(OCCc2ccc(F)cc2)cc1` [Example 111, (S)-2-(2-((3-(Benzyloxy)propoxy)methyl)-4-(4,4-dimethylpiperidin-1-yl)-5-(4-(4-fluorophenethoxy)phenyl)-6-methylpyridin-3-yl)-2-(tert-butoxy)acetic acid], the pEC50 was more than 7.00.

With `Cc1nc(CNCCO)c(-c2ccc(OCCc3ccc(F)cc3)cc2)c(N2CCC(C)(C)CC2)c1[C@H](OC(C)(C)C)C(=O)O` [Example 69, (S)-2-(tert-Butoxy)-2-(4-(4,4-dimethylpiperidin-1-yl)-5-(4-(4-fluorophenethoxy)phenyl)-6-(((2-hydroxyethyl)amino)methyl)-2-methylpyridin-3-yl)acetic acid], the pEC50 is more than 7.00.

As for `CCOCCOCc1nc(C)c([C@H](OC(C)(C)C)C(=O)O)c(N2CCC(C)(C)CC2)c1-c1ccc(OCCc2ccc(F)cc2)cc1` [Example 10, (S)-2-(tert-Butoxy)-2-(4-(4,4-dimethylpiperidin-1-yl)-6-((2-ethoxyethoxy)methyl)-5-(4-(4-fluorophenethoxy)phenyl)-2-methylpyridin-3-yl)acetic acid], the pEC50 is more than 7.00.

In the case of `COc1ccc(Cc2nc(C)c([C@H](OC(C)(C)C)C(=O)O)c(N3CCC(C)(C)CC3)c2-c2ccc(OCCc3ccc(F)cc3)cc2)cc1` [Example 60, (S)-2-(tert-Butoxy)-2-(4-(4,4-dimethylpiperidin-1-yl)-5-(4-(4-fluorophenethoxy)phenyl)-6-(4-methoxybenzyl)-2-methylpyridin-3-yl)acetic acid], the pEC50 was more than 7.00.

As to `Cc1nc(CN2CCCCC2)c(-c2ccc(OCCc3ccc(F)cc3)cc2)c(N2CCC(C)(C)CC2)c1[C@H](OC(C)(C)C)C(=O)O` [Example 80, (S)-2-(tert-Butoxy)-2-(4-(4,4-dimethylpiperidin-1-yl)-5-(4-(4-fluorophenethoxy)phenyl)-2-methyl-6-(piperidin-1-ylmethyl)pyridin-3-yl)acetic acid], the pEC50 was more than 7.00.
